Experimental data reported in patent US20200247794A1, “PHARMACOPHORES, COMPOUNDS AND METHODS HAVING APPLICATION IN THE TREATMENT OF CANCER THROUGH INHIBITION OF CYP17A1 AND CYP19A1” (MANGOSUTHU UNIVERSITY OF TECHNOLOGY, priority 2015, published 2020).
Like-named read-outs stand apart in the source and are kept apart here.

Tests used:
[1] = biological target: T1, CYP17A1 (Homo sapiens, UniProt P05093); conditions: cited from earlier work; for pIC50: −log IC50 (M), converted from literature IC50; for IC50: literature value, no unit in the table, nM
T1 sequence (P05093 1-508): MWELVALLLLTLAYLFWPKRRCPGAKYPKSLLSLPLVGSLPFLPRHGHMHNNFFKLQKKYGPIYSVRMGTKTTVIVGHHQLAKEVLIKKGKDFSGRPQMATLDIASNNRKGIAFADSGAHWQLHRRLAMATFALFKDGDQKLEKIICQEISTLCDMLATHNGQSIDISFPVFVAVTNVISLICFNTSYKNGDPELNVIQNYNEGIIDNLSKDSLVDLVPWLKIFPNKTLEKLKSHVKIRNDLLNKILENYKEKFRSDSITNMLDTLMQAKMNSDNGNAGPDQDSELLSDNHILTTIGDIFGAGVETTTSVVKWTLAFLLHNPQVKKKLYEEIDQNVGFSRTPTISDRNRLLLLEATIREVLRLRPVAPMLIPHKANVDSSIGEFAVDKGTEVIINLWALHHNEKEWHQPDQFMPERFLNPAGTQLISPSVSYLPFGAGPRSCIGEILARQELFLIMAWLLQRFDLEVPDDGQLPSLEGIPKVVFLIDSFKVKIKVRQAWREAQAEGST

[2] = biological target: T1, CYP17A1; assay: CYP17A1 inhibition (CYP17A1 bactosomes, progesterone substrate, LC-MS/MS); type: biochemical; set-up: purchased Cypex, Dundee, UK; host or cells: bacterial membranes (bactosomes); conditions: for inhibitory potency of CYP17A1 (in words): summary of Table 2; for IC50: 20 pmol/ml bactosomes, 0.1 μM progesterone, 50 μM to 50 nM
Procedure: CYP17A1 inhibition was measured using 20 pmol/ml CYP17A1 bactosomes (Cypex, Dundee, UK) and 0.1 μM progesterone as a substrate and 1 mM NADPH in 50 mM potassium phosphate buffer pH 7.4 containing 5 mM magnesium chloride. Inhibitors were dissolved in DMSO and serially diluted in seven ½ log steps, final concentrations ranging from 50 μM to 50 nM. Reaction volume was 100 μl and final DMSO concentration was 1% (v/v). Reactions were started by the addition of NADPH and incubated at 37° C. for 20 minutes with shaking at 1800 rpm on a Bioshake IQ (Q-Instruments, Jena, Germany). Reactions were terminated by the addition of 200 μl methanol containing 1 μM tolbutamide as an internal standard.

[3] = biological target: T2, CYP1A2 (Homo sapiens, UniProt P05177); assay: CYP inhibition, 5 CYP bactosome mix: CYP1A2 (tacrine); type: in vitro ADME; conditions: tacrine 0.5 μM
T2 construct: purchased Cypex, Dundee CYP/XG001, Batch XG001001; host or cells: E. coli
T2 sequence (P05177 1-516): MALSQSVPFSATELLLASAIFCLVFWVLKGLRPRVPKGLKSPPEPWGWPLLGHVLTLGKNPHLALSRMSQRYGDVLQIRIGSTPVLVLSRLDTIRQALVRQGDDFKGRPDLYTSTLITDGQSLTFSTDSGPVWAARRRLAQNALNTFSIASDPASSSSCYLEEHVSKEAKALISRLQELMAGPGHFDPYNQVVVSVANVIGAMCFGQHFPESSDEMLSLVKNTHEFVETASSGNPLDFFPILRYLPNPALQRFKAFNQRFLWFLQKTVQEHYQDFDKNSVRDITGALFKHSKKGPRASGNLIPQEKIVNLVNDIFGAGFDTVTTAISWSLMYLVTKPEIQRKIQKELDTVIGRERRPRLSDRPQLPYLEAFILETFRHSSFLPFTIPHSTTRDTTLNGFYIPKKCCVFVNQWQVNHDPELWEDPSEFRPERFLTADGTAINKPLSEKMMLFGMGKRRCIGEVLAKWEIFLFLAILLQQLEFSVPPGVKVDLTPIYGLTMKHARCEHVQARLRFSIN
Text: (§1) CYP Inhibition Against Major 5 Human Liver CYPs in E. coli CYPEX Membranes
The final DMSO concentration was 1%.

[4] = biological target: T3, CYP2C9 (Homo sapiens, UniProt P11712); assay: CYP inhibition, 5 CYP bactosome mix: CYP2C9 (diclofenac); type: in vitro ADME; conditions: diclofenac 2 μM
T3 construct: purchased Cypex, Dundee CYP/XG001, Batch XG001001; host or cells: E. coli
Text: as §1
The final DMSO concentration was 1%.

[5] = biological target: T4, CYP2C19 (Homo sapiens, UniProt P33261); assay: CYP inhibition, 5 CYP bactosome mix: CYP2C19 ((S)-mephenytoin); type: in vitro ADME; conditions: (S)-mephenytoin 40 μM
T4 construct: purchased Cypex, Dundee CYP/XG001, Batch XG001001; host or cells: E. coli
Text: as §1
The final DMSO concentration was 1%.

[6] = biological target: T5, CYP2D6 (Homo sapiens, UniProt P10635); assay: CYP inhibition, 5 CYP bactosome mix: CYP2D6 (bufuralol); type: in vitro ADME; conditions: bufuralol 10 μM
T5 construct: purchased Cypex, Dundee CYP/XG001, Batch XG001001; host or cells: E. coli
Text: as §1
The final DMSO concentration was 1%.

[7] = biological target: T6, CYP3A4 (Homo sapiens, UniProt P08684); assay: CYP inhibition, 5 CYP bactosome mix: CYP3A4 (midazolam); type: in vitro ADME; conditions: midazolam 2.5 μM
T6 construct: purchased Cypex, Dundee CYP/XG001, Batch XG001001; host or cells: E. coli
Text: as §1
The final DMSO concentration was 1%.

[8] = system: CYP1A2, CYP2C9, CYP2C19, CYP2D6, and CYP3A4; assay: CYP inhibition against major 5 human liver CYPs (panel, summary in words); type: in vitro ADME; conditions: drug-drug interaction remark
[9] = biological target: T7, CYP19A1 (Homo sapiens, UniProt P11511); assay: CYP19A1 inhibition (CYP19/MFC High Throughput Inhibitor Screen Kit, fluorescence); type: biochemical
T7 sequence (P11511 1-503): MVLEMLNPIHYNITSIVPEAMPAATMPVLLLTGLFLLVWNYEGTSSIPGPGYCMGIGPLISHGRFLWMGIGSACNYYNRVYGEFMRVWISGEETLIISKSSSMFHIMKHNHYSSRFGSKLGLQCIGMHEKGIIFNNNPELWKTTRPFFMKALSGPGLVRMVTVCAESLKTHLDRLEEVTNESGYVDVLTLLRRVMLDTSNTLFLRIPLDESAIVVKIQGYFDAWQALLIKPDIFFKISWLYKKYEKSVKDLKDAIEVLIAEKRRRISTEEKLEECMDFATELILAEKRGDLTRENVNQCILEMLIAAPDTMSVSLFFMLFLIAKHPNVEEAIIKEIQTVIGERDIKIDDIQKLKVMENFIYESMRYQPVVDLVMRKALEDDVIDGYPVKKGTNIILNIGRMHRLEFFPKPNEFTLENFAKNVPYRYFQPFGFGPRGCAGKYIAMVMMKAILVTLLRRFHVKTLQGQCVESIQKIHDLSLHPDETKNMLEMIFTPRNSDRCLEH
Procedure: Test compounds and control inhibitors were prepared as stocks in either Acetonitrile or DMSO from the solid compound. Compounds were serially diluted in ½ log steps in the same solvent.
CYP19A1 inhibition experiments were performed using the CYP19/MFC High Throughput Inhibitor Screen Kit (Corning).
CYP19A1 reactions were performed in black 96 well-plates (Greiner) according to the manufacturer's instructions. […] Final organic solvent concentrations were either 4% (v/v) acetonitrile or 0.5% (v/v) Dimethyl sulfoxide. The plates were covered with self-adhesive film lids and incubated for 10 minutes at 37° C. Reactions were terminated by the addition of 75 μl Stop Solution (100 mM Tris base in acetonitrile: MilliQ water (80:20).
Fluorescence of 7-Hydroxy-4-trifluoromethylcoumarin (HFC) was measured on a SpectraMax® i3x (Molecular Devices) using 409 nm and 530 nm as excitation and emission wavelengths, respectively.
The CYP activities for each test compound/positive control inhibitor at each concentration were converted to % of control activity (CA). The LC-MS/MS peak responses (CYP metabolite peak area/internal standard peak area) for each test compound or positive control inhibitor were used and the response for each sample was expressed as a percentage of an uninhibited control (DMSO incubation). The data were then expressed as (log(CA/100-CA) and used to generate a pseudo-Hill plot, the slope and y axis intercept are used to calculate the IC50-value according to the following equation.

[10] = 7.5 pmol/ml CYP19A1, 25 μM MFC, top concentration 50 μM (acetonitrile) or 25 μM (DMSO), read-out: CYP19A1 IC50

T5 sequence (P10635 whole entry): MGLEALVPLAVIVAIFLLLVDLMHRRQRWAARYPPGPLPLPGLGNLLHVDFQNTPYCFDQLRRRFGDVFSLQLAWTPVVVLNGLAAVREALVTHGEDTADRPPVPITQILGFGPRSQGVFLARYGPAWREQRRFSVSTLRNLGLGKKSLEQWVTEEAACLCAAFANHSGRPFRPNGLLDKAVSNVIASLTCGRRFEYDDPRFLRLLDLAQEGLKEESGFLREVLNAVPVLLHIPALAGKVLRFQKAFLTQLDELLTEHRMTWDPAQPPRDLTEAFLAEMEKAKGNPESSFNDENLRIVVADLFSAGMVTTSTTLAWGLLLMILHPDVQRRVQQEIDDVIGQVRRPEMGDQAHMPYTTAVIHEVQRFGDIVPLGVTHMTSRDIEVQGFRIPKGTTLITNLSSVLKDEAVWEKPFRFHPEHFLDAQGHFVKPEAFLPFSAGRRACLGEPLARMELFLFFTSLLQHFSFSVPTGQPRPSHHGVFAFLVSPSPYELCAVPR
T3 sequence (P11712 whole entry): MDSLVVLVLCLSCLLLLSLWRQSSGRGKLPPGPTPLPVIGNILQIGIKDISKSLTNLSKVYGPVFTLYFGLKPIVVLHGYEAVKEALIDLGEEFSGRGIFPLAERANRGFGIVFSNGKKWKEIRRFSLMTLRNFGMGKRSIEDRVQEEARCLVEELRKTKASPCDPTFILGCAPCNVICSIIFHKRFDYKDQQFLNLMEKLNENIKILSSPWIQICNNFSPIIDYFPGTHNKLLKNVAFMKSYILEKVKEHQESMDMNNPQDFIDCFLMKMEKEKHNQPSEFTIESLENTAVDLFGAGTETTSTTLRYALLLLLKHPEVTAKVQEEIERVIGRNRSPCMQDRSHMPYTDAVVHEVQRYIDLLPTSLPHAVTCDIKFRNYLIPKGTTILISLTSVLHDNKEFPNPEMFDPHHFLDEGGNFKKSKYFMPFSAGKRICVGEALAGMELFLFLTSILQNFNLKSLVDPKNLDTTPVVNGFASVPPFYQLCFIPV
T4 sequence (P33261 whole entry): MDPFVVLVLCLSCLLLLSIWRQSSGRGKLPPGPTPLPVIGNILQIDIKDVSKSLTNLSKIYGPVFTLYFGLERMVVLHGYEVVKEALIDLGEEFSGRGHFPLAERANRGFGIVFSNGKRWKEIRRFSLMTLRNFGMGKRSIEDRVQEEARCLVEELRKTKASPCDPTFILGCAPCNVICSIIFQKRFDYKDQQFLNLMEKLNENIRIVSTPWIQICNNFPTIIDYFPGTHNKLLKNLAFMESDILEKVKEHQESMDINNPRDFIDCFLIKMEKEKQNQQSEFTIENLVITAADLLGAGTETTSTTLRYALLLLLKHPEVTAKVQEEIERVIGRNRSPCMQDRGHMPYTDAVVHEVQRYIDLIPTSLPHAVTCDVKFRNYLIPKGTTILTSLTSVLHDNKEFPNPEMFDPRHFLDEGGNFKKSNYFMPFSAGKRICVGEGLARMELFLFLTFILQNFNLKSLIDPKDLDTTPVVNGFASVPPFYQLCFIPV
T6 sequence (P08684 whole entry): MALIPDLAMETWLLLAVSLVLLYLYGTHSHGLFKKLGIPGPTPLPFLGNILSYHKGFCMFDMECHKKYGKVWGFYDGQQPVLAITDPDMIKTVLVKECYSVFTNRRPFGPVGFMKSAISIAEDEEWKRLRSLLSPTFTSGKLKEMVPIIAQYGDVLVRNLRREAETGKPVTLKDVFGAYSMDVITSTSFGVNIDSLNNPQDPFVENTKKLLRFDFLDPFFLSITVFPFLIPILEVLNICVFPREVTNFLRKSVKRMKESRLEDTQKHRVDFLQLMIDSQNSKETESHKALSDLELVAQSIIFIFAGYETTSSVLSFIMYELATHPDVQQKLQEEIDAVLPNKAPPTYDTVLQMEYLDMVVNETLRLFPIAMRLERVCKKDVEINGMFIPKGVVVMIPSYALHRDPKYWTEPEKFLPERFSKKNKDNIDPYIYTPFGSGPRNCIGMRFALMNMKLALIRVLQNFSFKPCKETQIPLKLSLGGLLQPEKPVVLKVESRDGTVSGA

Structure (SMILES)	inhibitory potency of CYP17A1 (in words) [2]	IC50 [3]	IC50 [4]	IC50 [5]	IC50 [6]	IC50 [7]	inhibition of metabolic CYP450 isoforms (in words) [8]	IC50 [2]	IC50 [9, 10]	pIC50 [1]	IC50 [1]	IC50 [9]
O=C(NC1CC1)c1ccc2cc(C3(O)CCn4cncc43)ccc2c1 (racemic) [5bx [7]]	–	–	–	–	–	–	–	–	–	6.600	–	–
CNC(=O)c1ccc2cc(C(O)(c3cnc[nH]3)C(C)C)ccc2c1 (stereo not shown) [1 [11], 6-[1-Hydroxy-1-isopropyl(1H-imidazol-5-yl)methyl]-Nmethylnaphthalene-2-carboxamide]	–	–	–	–	–	–	–	–	–	7.800	–	–
Brc1ccc(Cc2ccncc2)cc1 [3g [11]]	–	–	–	–	–	–	–	–	–	6.400	–	–
COc1ccc(-c2ccc(Cc3ccncc3)cc2)cc1OC [9a [9], 4-[(3′,4′-Dimethoxybiphenyl-4-yl)methyl]pyridine]	–	–	–	–	–	–	–	–	–	–	52 nM	–
Cl.Fc1ccc(-c2ccc3c(c2)CCC3c2cccnc2)cc1 (stereo not shown) [15 [13]]	–	–	–	–	–	–	–	–	–	4.700	–	–
O=C(CSc1nnc(-c2c[nH]c3ccccc23)n1Cc1ccco1)NCc1ccccc1Cl [Compound 2, N-[(2-chlorophenyl)methyl]-2-({4-[(furan-2-yl)methyl]-5-(1H-indol-3-yl)-4H-1,2,4-triazol-3-yl}sulfanyl)acetamide]	micromolar levels	4.5 µM	1.8 µM	3.5 µM	8.1 µM	1.1 µM	inhibit various CYP450 isoforms	> 50 µM	–	–	–	–
Cc1cccc(C(=O)OCCOc2ccc(S(N)(=O)=O)cc2)c1N [Compound 4, 2-(4-sulfamoylphenoxy)ethyl 2-amino-3-methylbenzoate]	–	–	16 µM	1.5 µM	–	3.3 µM	inhibit various CYP450 isoforms	–	–	–	–	43.5 µM
O=C1COc2cc(NCc3cccc(C(=O)Nc4cccnc4)c3)c(O)cc2N1 [Compound 8, 3-{[(6-hydroxy-3-oxo-3,4-dihydro-2H-1,4-benzoxazin-7-yl)amino]methyl}-N-(pyridin-3-yl)benzamide]	–	2.7 µM	7.9 µM	44.6 µM	> 50 µM	2.8 µM	–	–	5.9 µM	–	–	–
COc1cc2ccc([C@](O)(c3c[nH]cn3)C(C)C)cc2cc1OC [TAK700, [(1S)-1-(6,7-dimethoxy-2-naphthyl)-1-(1H-imidazol-4-yl)-2-methylpropan-1-ol]]	–	–	–	–	–	–	–	–	–	7.550	28 nM	–

Now from value to molecule, other results behind:

inhibitory potency of CYP17A1 (in words) [2]	IC50 [3]	IC50 [4]	IC50 [5]	IC50 [6]	IC50 [7]	inhibition of metabolic CYP450 isoforms (in words) [8]	IC50 [2]	IC50 [9, 10]	Structure (SMILES)	pIC50 [1]	IC50 [1]	IC50 [9]
micromolar levels	–	–	–	–	–	–	–	–	CCCC(=O)Nc1ccc(C(=O)C(C)OC(=O)c2n[nH]c3ccccc23)cc1 (racemic) [Compound 6, 1-(4-butanamidophenyl)-1-oxopropan-2-yl-1H-indazole-3-carboxylate]	–	–	–
micromolar levels	27.9 µM	6.1 µM	14.9 µM	36.3 µM	14.6 µM	inhibit various CYP450 isoforms	> 50 µM	–	CCc1ccc(NC(=O)c2cc(C(=O)c3cc(OC)ccc3O)coc2=N)cc1 [Compound 1, N-(4-ethylphenyl)-5-(2-hydroxy-5-methoxybenzoyl)-2-imino-2H-pyran-3-carboxamide]	–	–	–
–	> 50 µM	> 50 µM	> 50 µM	> 50 µM	> 50 µM	–	–	> 50 µM	COC(C)C(=O)Nc1cccc(NC(C(N)=O)c2ccccc2)c1 (stereo not shown) [Compound 5, N-(3-{[carbamoyl(phenyl)methyl]amino}phenyl)-2-methoxypropanamide]	–	–	–
micromolar levels	> 50 µM	–	> 50 µM	> 50 µM	0.7 µM	–	–	> 25 µM	O=C1COc2cc(NCc3cccc(NC(=O)c4ccccc4Cl)c3)c(Cl)cc2N1 [Compound 7, 2-chloro-N-(3-{[(6-chloro-3-oxo-3,4-dihydro-2H-1,4-benzoxazin-7-yl)amino]methyl}phenyl)benzamide]	–	–	–
micromolar levels	> 50 µM	> 50 µM	> 50 µM	> 50 µM	> 50 µM	–	> 50 µM	–	O=C(Nc1ccccc1O)c1ccc(Oc2cccc(C(=O)Nc3ccccc3O)c2)cc1 [Compound 9, N-(2-hydroxyphenyl)-4-{3-[(2-hydroxyphenyl)carbamoyl]phenoxy}benzamide]	–	–	–
micromolar levels	2.1 µM	> 50 µM	> 50 µM	> 50 µM	6.6 µM	–	> 50 µM	5.7 µM	O=C1COc2cc(NCc3cccc(C(=O)Nc4cccnc4)c3)ccc2N1 [Compound 10, 3-{[(3-oxo-3,4-dihydro-2H-1,4-benzoxazin-7-yl)amino]methyl}-N-(pyridin-3-yl)benzamide]	–	–	–
–	26.9 µM	4 µM	7.6 µM	2.7 µM	8.3 µM	inhibit various CYP450 isoforms	–	8.6 µM	O=C1COc2cc(NCc3cccc(C(=O)Nc4ccccc4O)c3)ccc2N1 [Compound 11, N-(2-hydroxyphenyl)-3-{[(3-oxo-3,4-dihydro-2H-1,4-benzoxazin-7-yl)amino]methyl}benzamide]	–	–	–
–	0.6 µM	–	> 50 µM	> 50 µM	1.1 µM	inhibit various CYP450 isoforms	> 50 µM	14.5 µM	O=C1COc2cc(NCc3cccc(C(=O)Nc4cccnc4)c3)c(Cl)cc2N1 [Compound 13, 3-{[(6-chloro-3-oxo-3,4-dihydro-2H-1,4-benzoxazin-7-yl)amino]methyl}-N-(pyridin-3-yl)benzamide]	–	–	–
